We go through 14 compounds from patent US9670193B2 (Novartis AG, priority 2011, dated 2017).

Common to all, as to format: biochemical
For assay [1], the target named is T1, Human recombinant HDAC4 (Homo sapiens (Human), UniProt P56524). As to the kind of experiment: Earlier version of HDAC4 assay. The settings on record: 10 μM substrate, test concentrations 0.003 μM to 100 μM. On the procedure:
Description of Earlier Version of HDAC4 Assay
Human recombinant HDAC4 was expressed in full length form (aa 2-1084) in Sf9 insect cells (obtained from ATCC) using baculovirus generated with Bac-to-Bac system (Invitrogen). Test compounds were serially diluted to reach final test concentrations from 0.003 μM to 100 μM. HDAC4 and test compounds were incubated in 25 mM Tris buffer pH 8.0 containing 137 mM NaCl, 2.7 mM KCl, 1 mM MgCl2 and 0.05% (w/v) bovine serum albumine for 2 hours at room temperature in presence of 10 μM of acetyl-Gly-Ala-Lys(ε-trifluoroacetyl)-AMC (AMC=7-amino-4-methyl coumarin) in a final volume of 200 μl. Control wells with HDAC4 only (positive control) and without HDAC4 (negative control) were included on the microplate. Bovine trypsin (10 μl of a 0.4 mg/ml solution) was added and the plate incubated for additional 15 minutes at room temperature. The plate was placed in a fluorescence microplate reader, and read at an excitation wavelength of 360 nm and an emission wavelength of 450 nm with a cut-off filter of 435 nm. Fluorescence values for all wells containing HDAC4 (positive control and wells with test compound) were corrected by subtracting negative control fluorescence values, and IC50 values were calculated by fitting the dose-response curves to a 4-parameter logistic function.

In assay [2] the target is T1, Human recombinant HDAC4. As to the kind of experiment: HDAC4 assay (Test 1), fluorescence, acetyl-Gly-Ala-Lys(ε-trifluoroacetyl)-AMC substrate. As to conditions: 5 μM substrate, 2 hours at room temperature. On the procedure:
Test 1: HDAC4 Assay Description
(§1) Human recombinant HDAC4 was expressed in full length form (aa 2-1084) in Sf9 insect cells (obtained from ATCC) using baculovirus generated with Bac-to-Bac system (Invitrogen). Test compounds were serially diluted to reach final test concentrations from 0.000128 μM to 10 μM. HDAC4 and test compounds were incubated in 25 mM Tris buffer pH 8.0 containing 137 mM NaCl, 2.7 mM KCl, 1 mM MgCl2, 0.05% (w/v) bovine serum albumine and 0.005% (v/v) Triton-X-100 for 2 hours at room temperature in presence of 5 μM of acetyl-Gly-Ala-Lys(ε-trifluoroacetyl)-AMC (AMC=7-amino-4-methyl coumarin) in a final volume of 9 μl. Control wells with HDAC4 only (positive control) and without HDAC4 (negative control) were included on the microplate. Bovine trypsin (4.5 μl of a 300 nM solution) was added and the plate incubated for additional 15 minutes at room temperature. The plate was placed in a fluorescence microplate reader, and read at an excitation wavelength of 360 nm and an emission wavelength of 450 nm with a 10 nm bandpath. Fluorescence values for all wells containing HDAC4 (positive control and wells with test compound) were corrected by subtracting negative control fluorescence values, and IC50 values were calculated by fitting the dose-response curves to a 4-parameter logistic function.

Assay [3] concerns the target Human recombinant full length HDAC1 (Homo sapiens (Human), UniProt Q13547). Description: HDAC1 assay (Test 2), acetyl-Gly-Ala-Lys(acetyl)-AMC substrate. The settings on record: 5 μM substrate, 2 hours at room temperature. Here is the method:
as §1
Test 2: HDAC1 Assay Description
A similar assay procedure as described in Test 1 was used for HDAC1. Human recombinant full length HDAC1 expressed in a baculovirus expression system was purchased from BPS BioSciences (San Diego, Calif., U.S.A.). The substrate used in the […] assay was 5 μM of acetyl-Gly-Ala-Lys(acetyl)-AMC.

Assay [4] deals with Human recombinant full length HDAC6 (Homo sapiens (Human), UniProt Q9UBN7). As to the kind of experiment: HDAC6 assay (Test 3), acetyl-Gly-Ala-Lys(acetyl)-AMC substrate. The settings on record: 5 μM substrate, 2 hours at room temperature. Here is the method: as §1
Test 3: HDAC6 Assay Description
A similar assay procedure as described in Test 1 was used for HDAC6. Human recombinant full length HDAC6 expressed in a baculovirus expression system was purchased from BPS BioSciences (San Diego, Calif., U.S.A.). The substrate used in the […] assay was 5 μM of acetyl-Gly-Ala-Lys (acetyl)-AMC.

Bounds are passed on as bounds.

Chain of Human recombinant full length HDAC1 (Q13547 whole entry): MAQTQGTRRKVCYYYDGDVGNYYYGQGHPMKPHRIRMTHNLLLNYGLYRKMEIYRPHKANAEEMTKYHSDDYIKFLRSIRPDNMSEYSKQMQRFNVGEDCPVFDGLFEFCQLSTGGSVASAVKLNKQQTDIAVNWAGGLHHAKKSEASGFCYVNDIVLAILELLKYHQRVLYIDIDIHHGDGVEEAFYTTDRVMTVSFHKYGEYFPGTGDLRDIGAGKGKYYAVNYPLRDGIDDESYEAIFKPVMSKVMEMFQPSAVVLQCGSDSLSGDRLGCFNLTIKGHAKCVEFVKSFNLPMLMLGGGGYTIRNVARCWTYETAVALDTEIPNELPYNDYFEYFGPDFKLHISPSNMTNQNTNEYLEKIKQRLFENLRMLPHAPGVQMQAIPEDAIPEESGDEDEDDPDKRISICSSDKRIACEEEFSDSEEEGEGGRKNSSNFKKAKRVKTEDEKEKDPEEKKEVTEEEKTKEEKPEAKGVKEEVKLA
T1 sequence (P56524 2-1084): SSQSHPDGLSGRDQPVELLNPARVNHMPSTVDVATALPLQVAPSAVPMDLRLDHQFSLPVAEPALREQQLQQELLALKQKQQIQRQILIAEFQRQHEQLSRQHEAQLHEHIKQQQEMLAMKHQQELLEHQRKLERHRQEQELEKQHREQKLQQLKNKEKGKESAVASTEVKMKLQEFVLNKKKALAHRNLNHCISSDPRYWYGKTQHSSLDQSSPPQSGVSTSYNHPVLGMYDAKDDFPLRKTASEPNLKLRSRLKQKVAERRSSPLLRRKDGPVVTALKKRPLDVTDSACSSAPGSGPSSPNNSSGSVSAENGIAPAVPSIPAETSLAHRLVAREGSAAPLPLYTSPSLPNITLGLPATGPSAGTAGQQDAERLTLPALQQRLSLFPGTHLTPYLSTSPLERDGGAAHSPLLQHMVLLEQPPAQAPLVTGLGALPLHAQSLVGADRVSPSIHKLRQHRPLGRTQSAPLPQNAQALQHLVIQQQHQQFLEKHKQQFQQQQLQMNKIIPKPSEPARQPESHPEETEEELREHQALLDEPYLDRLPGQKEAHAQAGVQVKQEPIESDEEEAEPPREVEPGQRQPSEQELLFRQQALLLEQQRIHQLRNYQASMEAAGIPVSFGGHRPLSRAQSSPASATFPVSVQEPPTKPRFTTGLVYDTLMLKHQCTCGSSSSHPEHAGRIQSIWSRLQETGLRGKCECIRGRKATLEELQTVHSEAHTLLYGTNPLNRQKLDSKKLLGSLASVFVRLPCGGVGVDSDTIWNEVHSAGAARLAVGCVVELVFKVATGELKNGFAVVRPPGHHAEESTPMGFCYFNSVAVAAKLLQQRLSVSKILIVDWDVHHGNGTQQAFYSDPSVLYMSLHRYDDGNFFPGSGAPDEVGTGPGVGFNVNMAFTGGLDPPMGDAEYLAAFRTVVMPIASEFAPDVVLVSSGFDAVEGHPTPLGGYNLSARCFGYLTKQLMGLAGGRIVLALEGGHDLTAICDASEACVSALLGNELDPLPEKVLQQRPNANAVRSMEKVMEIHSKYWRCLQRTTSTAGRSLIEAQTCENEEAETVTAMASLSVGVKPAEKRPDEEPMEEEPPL
Chain of Human recombinant full length HDAC6 (Q9UBN7 whole entry): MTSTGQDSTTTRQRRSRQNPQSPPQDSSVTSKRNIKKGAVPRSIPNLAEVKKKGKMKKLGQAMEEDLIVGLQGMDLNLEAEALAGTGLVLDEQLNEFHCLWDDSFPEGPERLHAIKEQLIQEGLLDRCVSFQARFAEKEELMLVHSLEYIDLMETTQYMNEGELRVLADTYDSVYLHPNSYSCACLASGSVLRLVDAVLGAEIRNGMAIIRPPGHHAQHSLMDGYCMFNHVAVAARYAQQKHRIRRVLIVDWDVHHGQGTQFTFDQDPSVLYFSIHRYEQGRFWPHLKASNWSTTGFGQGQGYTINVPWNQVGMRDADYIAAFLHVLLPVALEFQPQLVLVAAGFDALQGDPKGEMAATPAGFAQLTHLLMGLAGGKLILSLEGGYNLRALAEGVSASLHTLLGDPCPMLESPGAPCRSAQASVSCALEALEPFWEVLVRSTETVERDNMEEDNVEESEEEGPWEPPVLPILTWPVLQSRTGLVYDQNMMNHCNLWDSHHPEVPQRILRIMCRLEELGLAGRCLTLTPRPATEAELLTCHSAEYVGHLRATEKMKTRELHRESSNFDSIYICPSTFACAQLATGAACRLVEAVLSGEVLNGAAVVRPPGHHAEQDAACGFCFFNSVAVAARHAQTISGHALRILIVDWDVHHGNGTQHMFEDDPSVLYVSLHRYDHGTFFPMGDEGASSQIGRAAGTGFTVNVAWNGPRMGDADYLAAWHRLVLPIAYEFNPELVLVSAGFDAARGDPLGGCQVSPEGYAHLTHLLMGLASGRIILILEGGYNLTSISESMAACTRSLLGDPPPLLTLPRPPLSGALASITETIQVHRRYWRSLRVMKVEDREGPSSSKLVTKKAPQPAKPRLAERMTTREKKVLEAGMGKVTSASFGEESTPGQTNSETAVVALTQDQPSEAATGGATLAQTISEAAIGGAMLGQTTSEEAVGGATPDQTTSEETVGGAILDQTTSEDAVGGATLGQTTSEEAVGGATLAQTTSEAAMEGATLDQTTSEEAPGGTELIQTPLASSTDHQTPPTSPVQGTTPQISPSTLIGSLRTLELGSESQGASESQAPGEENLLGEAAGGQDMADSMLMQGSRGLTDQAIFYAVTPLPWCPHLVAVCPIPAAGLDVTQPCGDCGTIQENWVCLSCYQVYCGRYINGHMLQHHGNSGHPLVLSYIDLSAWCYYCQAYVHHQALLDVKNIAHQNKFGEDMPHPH

The term IC50 denotes the midpoint of a concentration-inhibition curve. Regarding `C[C@@H](NC(=O)c1cnc(-c2noc(C(F)(F)F)n2)nc1)c1ccccc1` [(R)—N-(1-phenylethyl)-2-(5-(trifluoromethyl)-1,2,4-oxadiazol-3-yl)pyrimidine-5-carboxamide], on Human recombinant HDAC4 [1], the IC50 is over 30000 nM.
On to `FC(F)(F)c1nc(-c2cnc(NCc3ccncc3)c(Cl)c2)no1` [Example 35, 3-chloro-N-(pyridin-4-ylmethyl)-5-(5-(trifluoromethyl)-1,2,4-oxadiazol-3-yl)pyridin-2-amine], for which the IC50 on Human recombinant HDAC4 [2] was 11 nM; in assay [3] it was 1100 nM; in assay [4] it was 1800 nM.
Turning to `CC(Nc1ncc(-c2noc(C(F)(F)F)n2)cc1Cl)c1ccncc1` (centres unmarked) [Example 36, 3-chloro-N-(1-(pyridin-4-yl)ethyl)-5-(5-(trifluoromethyl)-1,2,4-oxadiazol-3-yl)pyridin-2-amine], the values for the IC50 (at Human recombinant HDAC4 [2]; in assay [3]; in assay [4]) were 6.4 nM, 860 nM and 1100 nM, respectively.
For `FC(F)(F)c1nc(-c2cnc(NCc3cccnc3)c(Cl)c2)no1` [Example 37, 3-chloro-N-(pyridin-3-ylmethyl)-5-(5-(trifluoromethyl)-1,2,4-oxadiazol-3-yl)pyridin-2-amine] the same measures were 19 nM, 1200 nM and 2000 nM.
Taken in the same sequence, the figures for `Cc1ccc(CNc2ncc(-c3noc(C(F)(F)F)n3)cc2Cl)cn1` [Example 38, 3-Chloro-N-((6-methylpyridin-3-yl)methyl)-5-(5-(trifluoromethyl)-1,2,4-oxadiazol-3-yl)pyridin-2-amine] were 21 nM, 1400 nM and 1550 nM.
For `FC(F)(F)c1nc(-c2cnc(NCc3ccccn3)c(Cl)c2)no1` [Example 39, 3-chloro-N-(pyridin-2-ylmethyl)-5-(5-(trifluoromethyl)-1,2,4-oxadiazol-3-yl)pyridin-2-amine] the same measures were 37 nM, 2500 nM and 1900 nM.
Take `FC(F)(F)c1nc(-c2ccc(NCc3ccccc3)nn2)no1` [Example 40, N-benzyl-6-(5-(trifluoromethyl)-1,2,4-oxadiazol-3-yl)pyridazin-3-amine]: the IC50 at Human recombinant HDAC4 [2] was determined as 200 nM; in assay [3] it was 7900 nM; in assay [4] it was 840 nM.
For `C[C@@H](Nc1cnc(-c2noc(C(F)(F)F)n2)nc1)c1ccccc1` [Example 41, (R)—N-(1-Phenylethyl)-2-(5-(trifluoromethyl)-1,2,4-oxadiazol-3-yl)pyrimidin-5-amine], the IC50 on Human recombinant HDAC4 [2] was determined as 60 nM; in assay [3], 4000 nM; in assay [4], 1300 nM.
Taken in the same sequence, the figures for `C[C@H](Nc1cnc(-c2noc(C(F)(F)F)n2)nc1)c1ccccc1` [Example 42, (S)—N-(1-Phenylethyl)-2-(5-(trifluoromethyl)-1,2,4-oxadiazol-3-yl)pyrimidin-5-amine] were 5000 nM, over 10000 nM and 1900 nM.
For `FC(F)(F)c1nc(-c2ncc(NCc3ccncc3)cn2)no1` [Example 43, N-(Pyridin-4-ylmethyl)-2-(5-(trifluoromethyl)-1,2,4-oxadiazol-3-yl)pyrimidin-5-amine] the same measures were 190 nM, 4700 nM and 1100 nM.
Consider `C[C@@H](Nc1ccc(-c2noc(C(F)(F)F)n2)cn1)c1ccncc1` [Example 44], for which the concentration for half-maximal inhibition (IC50) on Human recombinant HDAC4 [2] is 29 nM; in assay [3], 2700 nM; in assay [4], 1030 nM.
For `C[C@@H](Nc1ccc(-c2noc(C(F)(F)F)n2)nn1)c1ccncc1` [Example 45, (R)—N-(1-(Pyridin-4-yl)ethyl)-6-(5-(trifluoromethyl)-1,2,4-oxadiazol-3-yl)pyridazin-3-amine] the same measures were 65 nM, 3200 nM and 610 nM.
Taken in the same sequence, the figures for `C[C@H](CN(C)Cc1ccccc1)NC(=O)c1cnc(-c2noc(C(F)(F)F)n2)nc1` [Example 46] were 66 nM, over 10000 nM and over 10000 nM.
On to `O=C(NCc1ccncc1)c1cnc(-c2noc(C(F)(F)F)n2)nc1` [N-(pyridin-4-ylmethyl)-2-(5-(trifluoromethyl)-1,2,4-oxadiazol-3-yl)pyrimidine-5-carboxamide], for which the half-maximal inhibitory concentration (IC50) at Human recombinant HDAC4 [1] is over 30000 nM.
